{"source": "patent US12453769B2", "about": "(priority 2019, dated 2025)", "test_system": "gE-specific IFN-γ", "design": "species or system C57BL/6(N) mice", "conditions": "mouse, in vivo", "data": [{"substance": "QS-21", "values": [{"measurement": "induced production level of gE-specific IFN-γ (ELISPOT spot)", "value": "the best effect"}]}]}
